Laboratory results from DBAASP.
Values after ≈ are worked out from the molar mass of the structure shown. Values belong to the molecule of their own block, whether it stands above or below them.

Columns and labels:
Experiment in all cases: ≥ marks a high value that may be exact or a test limit, other limits are often not marked, values filed in µg/mL are converted to µM
[1] = system: Bacillus cereus ATCC 11778
[2] = system: Escherichia coli ATCC 25922
[3] = system: Klebsiella aerogenes ATCC 13048
[4] = system: Salmonella enterica subsp. enterica serovar Typhimurium ATCC 14028
[5] = system: Staphylococcus aureus ATCC 29213
[6] = system: Bacillus subtilis KCTC 3068
Enterococcus faecium = system: Enterococcus faecium
[7] = system: Escherichia coli KCTC 1682
[8] = system: Pseudomonas aeruginosa KCTC 1637
[9] = system: Salmonella typhimurium KCTC 1926
[10] = system: Staphylococcus aureus KCTC 1621
Staphylococcus aureus = system: Staphylococcus aureus
[11] = system: Staphylococcus epidermidis KCTC 1917
[12] = system: Escherichia coli DH5alpha
Staphylococcus xylosus = system: Staphylococcus xylosus
[13] = system: Acinetobacter baumannii ATCC 19606
[14] = system: Candida parapsilosis ATCC 22019
[15] = system: Enterococcus faecalis ATCC 29212
Escherichia coli ML-35p = system: Escherichia coli ML-35p
[16] = system: Klebsiella pneumoniae ATCC 13883
[17] = system: Pseudomonas aeruginosa ATCC 27853
Saccharomyces cerevisiae = system: Saccharomyces cerevisiae
[18] = system: Staphylococcus aureus ATCC 25923
[19] = system: Staphylococcus aureus ATCC 43300
[20] = system: Staphylococcus aureus ATCC BAA-44
[21] = system: Staphylococcus aureus ST1065
[22] = system: Streptococcus pyogenes ATCC 19615
Escherichia coli BL21AI = system: Escherichia coli BL21AI
[23] = system: Micrococcus luteus ATCC 10240
[24] = system: Staphylococcus aureus ATCC 29313
[25] = system: Xanthomonas axonopodis pv. glycines ISBF 327
[26] = system: Bacillus anthracis Sterne 34F2
[27] = system: Bacillus subtilis ATCC 9372
[28] = system: Burkholderia thailandensis
Micrococcus luteus = system: Micrococcus luteus
Neurospora crassa = system: Neurospora crassa

MIC [1]: ≥ 66.5 µM | MIC [2]: > 66.5 µM | MIC [3]: ≥ 66.5 µM | MIC [4]: > 66.5 µM | MIC [5]: > 66.5 µM
SMILES: CC[C@H](C)[C@H](N)C(=O)N[C@@H](CC(C)C)C(=O)NCC(=O)N[C@@H](CCCCN)C(=O)N[C@H](C(=O)N[C@@H](Cc1c[nH]c2ccccc12)C(=O)N[C@@H](CCC(=O)O)C(=O)NCC(=O)N[C@H](C(=O)N[C@@H](CCC(=O)O)C(=O)N[C@@H](CO)C(=O)N[C@@H](CC(C)C)C(=O)N[C@@H](Cc1ccccc1)C(N)=O)[C@@H](C)CC)[C@@H](C)CC [ILGKIWEGIESLF]

MIC [1]: ≥ 71.2 µM | MIC [2]: > 71.2 µM | MIC [3]: ≥ 71.2 µM | MIC [4]: > 71.2 µM | MIC [5]: > 71.2 µM
SMILES: CC[C@H](C)[C@H](N)C(=O)N[C@@H](CC(C)C)C(=O)NCC(=O)N[C@@H](C)C(=O)N[C@H](C(=O)N[C@@H](Cc1c[nH]c2ccccc12)C(=O)N[C@@H](CC(N)=O)C(=O)NCC(=O)N[C@H](C(=O)N[C@@H](CCCCN)C(=O)N[C@@H](CO)C(=O)N[C@@H](CC(C)C)C(=O)N[C@@H](Cc1ccccc1)C(N)=O)C(C)C)C(C)C [ILGAVWNGVKSLF]

MIC [6]: 1.27 µM (≈ 2 µg/mL) | MIC (Enterococcus faecium): 5.07 µM (≈ 8 µg/mL) | MIC [7]: 5.07 µM (≈ 8 µg/mL) | MIC [8]: 5.07 µM (≈ 8 µg/mL) | MIC [9]: 5.07 µM (≈ 8 µg/mL) | MIC [10]: 2.54 µM (≈ 4 µg/mL) | MIC (Staphylococcus aureus): 3.58 µM (≈ 5.66 µg/mL) | MIC [11]: 0.634 µM (≈ 1 µg/mL)
SMILES: NCCCC[C@H](NC(=O)[C@H](CCCCN)NC(=O)[C@H](Cc1ccccc1)NC(=O)[C@@H]1CCCN1C(=O)[C@H](Cc1c[nH]c2ccccc12)NC(=O)[C@H](Cc1c[nH]c2ccccc12)NC(=O)[C@H](Cc1c[nH]c2ccccc12)NC(=O)[C@@H]1CCCN1C(=O)[C@H](Cc1ccccc1)NC(=O)[C@H](CCCCN)NC(=O)[C@@H](N)CCCCN)C(=O)O [KKFPWWWPFKK]

MIC [12]: ≥ 64 µM | MIC (Staphylococcus xylosus): ≥ 64 µM
SMILES: CC[C@H](C)[C@H](NC(=O)CNC(=O)[C@H](CO)NC(=O)CN)C(=O)N[C@@H](CC(C)C)C(=O)N[C@H](C(=O)N[C@@H](CC(C)C)C(=O)N[C@H](C(=O)N[C@@H](CCCCN)C(=O)N[C@@H](CCCN=C(N)N)C(=O)N[C@@H](CCCCN)C(=O)O)[C@@H](C)CC)[C@@H](C)CC [GSGILILIKRK]

MIC [12]: ≥ 64 µM | MIC (Staphylococcus xylosus): ≥ 64 µM
SMILES: NCCCC[C@H](NC(=O)[C@H](CCCN=C(N)N)NC(=O)[C@H](CCCCN)NC(=O)[C@H](CO)NC(=O)CNC(=O)[C@H](CO)NC(=O)CNC(=O)[C@H](CO)NC(=O)[C@H](CCCCN)NC(=O)[C@H](CCCN=C(N)N)NC(=O)[C@@H](N)CCCCN)C(=O)O [KRKSGSGSKRK]

MIC [13]: 6.25 µM (≈ 12.7 µg/mL) | MIC [14]: ≥ 50 µM | MIC [15]: 25 µM (≈ 50.9 µg/mL) | MIC [2]: 25 µM (≈ 50.9 µg/mL) | MIC (Escherichia coli ML-35p): 30 µM (≈ 61.1 µg/mL) | MIC [16]: 25 µM (≈ 50.9 µg/mL) | MIC [17]: 200 µM (≈ 407 µg/mL) | MIC (Saccharomyces cerevisiae): 6.25 µM (≈ 12.7 µg/mL) | MIC [18]: 6.25 µM (≈ 12.7 µg/mL) | MIC [19]: 6.25 µM (≈ 12.7 µg/mL) | MIC [20]: 6.25 µM (≈ 12.7 µg/mL) | MIC [21]: 6.25 µM (≈ 12.7 µg/mL) | MIC [22]: 1.56 µM (≈ 3.18 µg/mL)
SMILES: CC[C@H](C)[C@H](NC(=O)[C@H](Cc1cnc[nH]1)NC(=O)[C@@H]1CCCN1C(=O)[C@@H](NC(=O)[C@H](CC(C)C)NC(=O)[C@H](CO)NC(=O)[C@H](CC(C)C)NC(=O)[C@@H](N)Cc1ccccc1)[C@@H](C)CC)C(=O)N[C@H](C(=O)N[C@@H](CO)C(=O)NCC(=O)N[C@H](C(=O)N[C@@H](C)C(=O)N[C@@H](CO)C(=O)N[C@@H](CC(C)C)C(=O)N[C@@H](C)C(=O)N[C@@H](CCCCN)C(=O)N[C@@H](Cc1cnc[nH]1)C(=O)N[C@@H](Cc1ccccc1)C(N)=O)C(C)C)C(C)C [FLSLIPHIVSGVASLAKHF]

MIC (Escherichia coli BL21AI): 13.9 µM (≈ 32 µg/mL) | MIC [23]: 6.94 µM (≈ 16 µg/mL)
SMILES: CC[C@H](C)[C@H](NC(=O)[C@H](C)NC(=O)[C@H](CCCN=C(N)N)NC(=O)[C@@H]1CCCN1C(=O)[C@@H]1CCCN1C(=O)[C@H](CCCN=C(N)N)NC(=O)[C@@H]1CCCN1C(=O)[C@H](CCCN=C(N)N)NC(=O)[C@@H]1CCCN1C(=O)[C@H](CC(C)C)NC(=O)[C@H](Cc1ccc(O)cc1)NC(=O)[C@@H]1CCCN1C(=O)[C@@H]1CCCN1C(=O)[C@H](CCCCN)NC(=O)[C@H](CC(=O)O)NC(=O)[C@@H](N)C(C)C)C(=O)N[C@@H](Cc1ccc(O)cc1)C(=O)N[C@@H](CC(N)=O)C(=O)N[C@@H](CCCN=C(N)N)C(N)=O [VDKPPYLPRPRPPRAIYNR]

MIC [2]: 62 µM (≈ 121 µg/mL) | MIC [17]: 125 µM (≈ 244 µg/mL) | MIC [25]: ≥ 33 µM
SMILES: CC[C@H](C)[C@H](NC(=O)[C@@H](NC(=O)[C@H](CCCCN)NC(=O)CNC(=O)[C@H](C)NC(=O)[C@H](CC(C)C)NC(=O)[C@H](CC(N)=O)NC(=O)[C@H](CCCCN)NC(=O)[C@H](CC(C)C)NC(=O)[C@@H](NC(=O)[C@H](CC(=O)O)NC(=O)[C@H](Cc1ccccc1)NC(=O)[C@H](Cc1ccccc1)NC(=O)[C@@H](N)Cc1ccccc1)[C@@H](C)O)C(C)C)C(=O)NCC(=O)N[C@@H](C)C(=O)N[C@@H](CC(C)C)C(=O)N[C@H](C(N)=O)[C@@H](C)O [FFFDTLKNLAGKVIGALT]
MIC [24]: ≥ 62 µM

SMILES: CC[C@H](C)[C@H](NC(=O)[C@@H]1CCCN1C(=O)CNC(=O)[C@@H]1CCCN1C(=O)[C@H](CCCN=C(N)N)NC(=O)[C@@H]1CCCN1C(=O)[C@H](CCC(N)=O)NC(=O)[C@H](CC(N)=O)NC(=O)[C@@H]1CCCN1C(=O)[C@H](CC(N)=O)NC(=O)[C@H](Cc1ccccc1)NC(=O)[C@@H]1CCCN1C(=O)[C@H](CO)NC(=O)[C@@H]1CCCN1C(=O)[C@H](CCCN=C(N)N)NC(=O)[C@@H](NC(=O)[C@H](CC(=O)O)NC(=O)[C@H](Cc1ccccc1)NC(=O)[C@@H](NC(=O)[C@@H]1CCCN1C(=O)CNC(=O)[C@H](CCC(N)=O)NC(=O)[C@H](Cc1cnc[nH]1)NC(=O)[C@H](CCCN=C(N)N)NC(=O)[C@@H](N)Cc1cnc[nH]1)[C@@H](C)CC)[C@@H](C)O)C(=O)N[C@@H](Cc1ccc(O)cc1)C(=O)O [HRHQGPIFDTRPSPFNPNQPRPGPIY]
MIC [26]: ≥ 100 µM | MIC [27]: ≥ 100 µM | MIC [28]: ≥ 50 µM | MIC (Micrococcus luteus): 0.707 µM (≈ 2.14 µg/mL) | MIC (Neurospora crassa): 0.707 µM (≈ 2.14 µg/mL)
